This note sets out measurements from ChEMBL document CHEMBL1158550, “The cytotoxic styryl lactone goniothalamin is an inhibitor of nucleocytoplasmic transport” (Bioorg Med Chem Lett, 2010).

For test [1], the target named is Exportin-1 (Homo sapiens) (UniProt O14980). Put plainly: Inhibition of CRM1-mediated nuclear export of Rio2 in human HeLa cells at 2 uM. In kind it is cell-based.
Test [2] relates to MDA-MB-231. The test can be described thus: Induction of apoptosis in human MDA-MB-231 cells. In kind it is functional, cell-based.
The target in test [3] is Exportin-1 (Homo sapiens) (UniProt O14980). Put plainly: Inhibition of CRM1-mediated nuclear export of Rio2 in human HeLa cells at 1 uM. The format is cell-based.
Test [4] deals with MDA-MB-231. Put plainly: Cytotoxicity against human MDA-MB-231 cells. In kind it is functional, cell-based.

Each structure is given as a SMILES string. Activity calls are given as the source filed them. The rule behind the calls is not given here.

Exportin-1 (Homo sapiens), sequence (O14980 whole entry): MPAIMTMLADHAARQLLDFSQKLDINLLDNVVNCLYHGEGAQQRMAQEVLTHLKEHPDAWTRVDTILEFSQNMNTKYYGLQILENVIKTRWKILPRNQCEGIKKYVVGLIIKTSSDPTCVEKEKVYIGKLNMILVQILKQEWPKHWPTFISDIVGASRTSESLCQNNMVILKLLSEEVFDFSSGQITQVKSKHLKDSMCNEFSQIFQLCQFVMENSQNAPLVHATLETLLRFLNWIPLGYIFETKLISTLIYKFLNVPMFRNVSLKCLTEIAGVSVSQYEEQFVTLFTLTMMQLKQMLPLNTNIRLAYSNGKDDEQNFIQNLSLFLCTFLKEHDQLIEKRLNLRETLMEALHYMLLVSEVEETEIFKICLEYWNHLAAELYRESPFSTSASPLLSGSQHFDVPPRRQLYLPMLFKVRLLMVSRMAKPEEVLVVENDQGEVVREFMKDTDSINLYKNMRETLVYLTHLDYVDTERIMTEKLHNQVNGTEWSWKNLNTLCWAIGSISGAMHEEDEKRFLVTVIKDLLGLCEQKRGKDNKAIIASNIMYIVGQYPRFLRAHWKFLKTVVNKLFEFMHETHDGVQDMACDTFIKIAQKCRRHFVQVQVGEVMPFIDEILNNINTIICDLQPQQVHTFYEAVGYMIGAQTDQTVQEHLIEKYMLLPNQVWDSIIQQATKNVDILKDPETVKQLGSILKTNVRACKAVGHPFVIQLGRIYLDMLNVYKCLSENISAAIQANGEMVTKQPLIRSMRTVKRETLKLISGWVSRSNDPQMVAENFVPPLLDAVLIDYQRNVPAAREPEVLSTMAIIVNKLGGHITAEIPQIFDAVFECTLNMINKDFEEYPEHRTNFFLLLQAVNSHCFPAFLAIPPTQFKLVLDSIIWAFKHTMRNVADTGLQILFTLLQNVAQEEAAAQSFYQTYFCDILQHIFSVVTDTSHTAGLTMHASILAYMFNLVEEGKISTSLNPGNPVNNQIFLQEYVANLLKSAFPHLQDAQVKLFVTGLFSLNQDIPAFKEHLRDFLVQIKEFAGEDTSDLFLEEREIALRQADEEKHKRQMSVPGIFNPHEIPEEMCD

Consider `O=C1C=CC[C@H](Cc2ccccc2)O1`, for which the inhibition entry in test [1] was “inactive”.

Consider `O=C1C=CC[C@H](C#C/C=C/c2ccccc2)O1`, for which the inhibition entry in test [1] is “inactive”.

Turning to `O=C1C=CC[C@H](c2ccccc2)O1`, in test [1], the inhibition entry was “inactive”.

As to `O=C1C=CC[C@H](c2ccc(-c3ccccc3)cc2)O1`, the inhibition result in test [1] was “inactive”.

For the compound `O=C1C=CC[C@H](/C=C/c2ccccc2)O1` [GONIOTHALAMIN], the outcome in test [2] was Active. The inhibition result in test [3] is “Active”. In addition, the 50% inhibitory concentration (IC50) in test [4] came out at 1.46 µM.

Broadly, the IC50 is the concentration that gives 50% inhibition. High values mean a need for much substance, low ones inhibition by little substance.
